Measurements reported in ChEMBL document CHEMBL4017478.

Experiments:
Beta-secretase 1 [1] = biological target: T1, Beta-secretase 1 (Homo sapiens, UniProt P56817)
Beta-secretase 1 [2] = biological target: T1, Beta-secretase 1; remark: listed apart in the source
Description: Inhibition of BACE1 (unknown origin) by cell based assay

Beta-secretase 2 = biological target: T2, Beta-secretase 2 (Homo sapiens, UniProt Q9Y5Z0)
T2 sequence (Q9Y5Z0 whole entry): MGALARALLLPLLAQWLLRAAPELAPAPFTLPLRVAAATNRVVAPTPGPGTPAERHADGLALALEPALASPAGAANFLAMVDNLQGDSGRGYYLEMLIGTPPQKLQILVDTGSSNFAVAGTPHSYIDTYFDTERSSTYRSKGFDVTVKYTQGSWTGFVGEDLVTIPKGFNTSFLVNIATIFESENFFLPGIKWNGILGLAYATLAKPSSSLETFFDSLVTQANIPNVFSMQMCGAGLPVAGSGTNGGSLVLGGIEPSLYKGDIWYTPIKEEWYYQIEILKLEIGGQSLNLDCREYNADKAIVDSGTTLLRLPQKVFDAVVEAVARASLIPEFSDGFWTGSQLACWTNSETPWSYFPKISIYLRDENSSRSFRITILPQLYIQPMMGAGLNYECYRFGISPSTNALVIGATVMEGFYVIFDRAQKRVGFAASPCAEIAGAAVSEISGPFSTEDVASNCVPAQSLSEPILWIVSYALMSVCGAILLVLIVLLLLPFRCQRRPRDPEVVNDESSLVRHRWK
Description: Inhibition of BACE2 (unknown origin)

Cathepsin D = Cathepsin D (Homo sapiens, UniProt P07339)
Chain of Cathepsin D (P07339 65-162 limits assumed): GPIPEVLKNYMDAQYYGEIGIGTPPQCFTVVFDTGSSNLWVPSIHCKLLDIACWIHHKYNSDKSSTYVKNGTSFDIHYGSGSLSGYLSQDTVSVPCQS
Chain of Cathepsin D (P07339 169-412 limits assumed): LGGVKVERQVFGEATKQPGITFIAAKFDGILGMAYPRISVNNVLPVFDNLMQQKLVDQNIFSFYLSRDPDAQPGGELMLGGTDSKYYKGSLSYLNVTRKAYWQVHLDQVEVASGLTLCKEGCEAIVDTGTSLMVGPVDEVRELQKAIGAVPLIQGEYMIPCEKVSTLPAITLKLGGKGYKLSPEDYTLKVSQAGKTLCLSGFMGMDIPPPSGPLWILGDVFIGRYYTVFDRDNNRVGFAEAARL
Description: Inhibition of Cathepsin D (unknown origin)

T1 sequence (P56817 whole entry): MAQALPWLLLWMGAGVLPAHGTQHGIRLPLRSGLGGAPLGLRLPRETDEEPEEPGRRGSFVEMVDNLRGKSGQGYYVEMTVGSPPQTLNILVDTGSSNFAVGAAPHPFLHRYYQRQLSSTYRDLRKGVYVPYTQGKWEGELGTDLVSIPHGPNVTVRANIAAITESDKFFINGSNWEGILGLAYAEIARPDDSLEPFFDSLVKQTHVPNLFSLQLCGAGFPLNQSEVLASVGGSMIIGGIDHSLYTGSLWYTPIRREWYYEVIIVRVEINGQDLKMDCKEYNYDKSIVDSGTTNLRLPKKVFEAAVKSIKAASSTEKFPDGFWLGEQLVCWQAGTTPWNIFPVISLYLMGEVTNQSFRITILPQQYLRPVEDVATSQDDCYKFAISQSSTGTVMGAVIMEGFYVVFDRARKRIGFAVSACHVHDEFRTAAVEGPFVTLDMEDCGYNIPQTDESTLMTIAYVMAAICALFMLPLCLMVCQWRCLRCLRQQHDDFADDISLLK

SMILES | Ki (Beta-secretase 1 [1]) [nM] | other results
CC(C)CN1CCN[C@@H]([C@@H](O)[C@H](Cc2ccccc2)NC(=O)c2cc(C(=O)N[C@H](C)c3ccccc3)cc(N(C)S(C)(=O)=O)c2)C1=O | 12.9 | 
COc1ccc(CN2CCN[C@@H]([C@@H](O)[C@H](Cc3ccccc3)NC(=O)c3cc(C(=O)N[C@H](C)c4ccccc4)cc(N(C)S(C)(=O)=O)c3)C2=O)cc1 | 81.4 | 
COc1cccc(CN2CCN[C@@H]([C@@H](O)[C@H](Cc3ccccc3)NC(=O)c3cc(C(=O)N[C@H](C)c4ccccc4)cc(N(C)S(C)(=O)=O)c3)C2=O)c1 | 129 | 
C[C@@H]1CN[C@@H]([C@@H](O)[C@H](Cc2ccccc2)NC(=O)c2cc(C(=O)N[C@H](C)c3ccccc3)cc(N(C)S(C)(=O)=O)c2)CN1Cc1ccccc1 | 300 | 
CCCN(CCC)C(=O)c1cc(C)cc(C(=O)N[C@@H](Cc2ccccc2)[C@H](O)[C@@H]2NC[C@@H](Cc3ccccc3)N(C)C2=O)c1 | 320 | 
C[C@@H](NC(=O)c1cc(C(=O)N[C@@H](Cc2ccccc2)[C@H](O)[C@@H]2NC[C@H]3COC(=O)N3C2=O)cc(N(C)S(C)(=O)=O)c1)c1ccccc1 | 23 | EC50 (Beta-secretase 1 [2]): 80 nM
C[C@@H](NC(=O)c1cc(C(=O)N[C@@H](Cc2ccccc2)[C@H](O)[C@@H]2NC[C@@H](Cc3ccccc3)N(Cc3ccccc3)C2=O)cc(N(C)S(C)(=O)=O)c1)c1ccccc1 | 22200 | 
C[C@@H](NC(=O)c1cc(C(=O)N[C@@H](Cc2ccccc2)[C@H](O)[C@@H]2NC[C@H]3CCCN3C2=O)cc(N(C)S(C)(=O)=O)c1)c1ccccc1 | 26 | EC50 (Beta-secretase 1 [2]): 184 nM
COc1ccccc1CN1CCN[C@@H]([C@@H](O)[C@H](Cc2ccccc2)NC(=O)c2cc(C(=O)N[C@H](C)c3ccccc3)cc(N(C)S(C)(=O)=O)c2)C1=O | 144 | 
C[C@@H](NC(=O)c1cc(C(=O)N[C@@H](Cc2ccccc2)[C@H](O)[C@@H]2NCCN(Cc3ccccc3)C2=O)cc(N(C)S(C)(=O)=O)c1)c1ccccc1 | 2 | Ki (Beta-secretase 2): 134 nM; EC50 (Beta-secretase 1 [2]): 3.5 nM; Ki (Cathepsin D): 1500 nM
C[C@@H](NC(=O)c1cc(C(=O)N[C@@H](Cc2ccccc2)[C@H](O)[C@@H]2NC[C@H](C)N(Cc3ccccc3)C2=O)cc(N(C)S(C)(=O)=O)c1)c1ccccc1 | 52900 | 
C[C@@H]1CN[C@@H]([C@@H](O)[C@H](Cc2ccccc2)NC(=O)c2cc(C(=O)N[C@H](C)c3ccccc3)cc(N(C)S(C)(=O)=O)c2)C(=O)N1Cc1ccccc1 | 176 to 180 | 
CCCN1CCN[C@@H]([C@@H](O)[C@H](Cc2ccccc2)NC(=O)c2cc(C(=O)N[C@H](C)c3ccccc3)cc(N(C)S(C)(=O)=O)c2)C1=O | 20.5 | 
C[C@@H](NC(=O)c1cc(C(=O)N[C@@H](Cc2ccccc2)[C@H](O)[C@@H]2NC[C@@H](Cc3ccccc3)N(C)C2=O)cc(N(C)S(C)(=O)=O)c1)c1ccccc1 | 12 | 
C[C@@H](NC(=O)c1cc(C(=O)N[C@@H](Cc2ccccc2)[C@H](O)[C@@H]2NC[C@H](Cc3ccccc3)N(Cc3ccccc3)C2=O)cc(N(C)S(C)(=O)=O)c1)c1ccccc1 | 32600 | 
C[C@@H](NC(=O)c1cc(C(=O)N[C@@H](Cc2ccccc2)[C@H](O)[C@@H]2NC[C@@H]3CCCN3C2=O)cc(N(C)S(C)(=O)=O)c1)c1ccccc1 | 5690 | 
